We go through 18 compounds from patent US10195185B2, “3-(1H-imidazo[4,5-C]pyridin-2-yl)-1H-pyrazolo[4,3-B]pyridines and therapeutic uses thereof” (Samumed, LLC, priority 2015, dated 2019).

In assay [1] the test system is Primary human fibroblasts derived from IPF patients (LL29 cells) treated with TGF-β1. Nature of the assay: Inhibition of the fibrotic process: αSMA staining in TGF-β1 treated fibroblasts. The class given is cell-based. Conditions: Fibroblast, 96 h, LL29 fibroblasts treated with TGF-β1, 4 days; for inhibition at 10 µM: read-out: percent inhibition in brackets beside EC50 >10 μM. In short, it runs like this:
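LL29 IPF-patient lung fibroblasts in 1% FBS F12 were given compounds (11-point, 10 μM to […], 0.1% DMSO) plus TGF-β1 20 ng/mL for 4 days at 37 °C. αSMA-positive fraction of live (SYTOX-negative) cells was imaged and normalized to TGF-β1/DMSO wells. EC50 by non-linear regression, or % inhibition at 10 μM if >10 μM.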

For assay [2], the system named is primary human mesenchymal stem cells (hMSCs). Nature of the assay: Induction of chondrogenesis in hMSCs (nodule area, Rhodamine B / Nile Red). Particulars: TGF-β3 as positive control; for Emax: read-out: Max. Activity as % TGF-β3 activity; for EC50: concentration required to induce 50% levels of chondrogenesis, read-out: Conc (nM) of 50% TGF-β3 activity. The format is cell-based. The method, boiled down:
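Primary hMSCs (passage 3–6) in incomplete chondrogenic induction medium were treated 6 days at 37° C. with 1:3 dilutions (2700–10 nM in 96-well or 5000–2.2 nM in 384-well; 0.03% DMSO). Rhodamine B/Nile Red-stained nodule area was imaged, normalized to DMSO wells, and EC50 was set against TGF-β3 (10 ng/mL).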

Turning to `CN(C)c1cncc(-c2ccc3[nH]nc(-c4nc5c(-c6cccs6)nccc5[nH]4)c3n2)c1` [Compound 343, N,N-Dimethyl-5-(3-(4-(thiophen-2-yl)-1H-imidazo[4,5-c]pyridin-2-yl)-1H-pyrazolo[4,3-b]pyridin-5-yl)pyridin-3-amine], the EC50 in assay [1] came out at 477 nM. In assay [2], the Emax was 85% and the EC50 came out at 100 nM.

In turn, `CN(C)Cc1cncc(-c2ccc3[nH]nc(-c4nc5c(-c6cccs6)nccc5[nH]4)c3n2)c1` [Compound 349, N,N-dimethyl-1-(5-(3-(4-(thiophen-2-yl)-1H-imidazo[4,5-c]pyridin-2-yl)-1H-pyrazolo[4,3-b]pyridin-5-yl)pyridin-3-yl)methanamine] yielded an EC50 in assay [1] of 2630 nM. In assay [2], the Emax was 75% and the EC50 stood at 10 nM.

In assay [1], `Cc1ccc(-c2nccc3[nH]c(-c4n[nH]c5ccc(-c6cncc(N)c6)nc45)nc23)s1` [Compound 395, 5-(3-(4-(5-Methylthiophen-2-yl)-1H-imidazo[4,5-c]pyridin-2-yl)-1H-pyrazolo[4,3-b]pyridin-5-yl)pyridin-3-amine] yielded an EC50 of 5070 nM. Moreover, in assay [2], the Emax was 73% and the EC50 came to 10 nM.

In assay [1], `Cc1ccc(-c2nccc3[nH]c(-c4n[nH]c5ccc(-c6cncc(NC(=O)C(C)C)c6)nc45)nc23)s1` [Compound 401, N-(5-(3-(4-(5-Methylthiophen-2-yl)-1H-imidazo[4,5-c]pyridin-2-yl)-1H-pyrazolo [4,3-b]pyridin-5-yl)pyridin-3-yl)isobutyramide] came in with an EC50 of 2520 nM. In addition, in assay [2], the Emax was 56% and the EC50 came out at 1670 nM.

Consider `CCNCc1cncc(-c2ccc3[nH]nc(-c4nc5c(-c6cc(F)cc(NCCN(C)C)c6)nccc5[nH]4)c3n2)c1` [Compound 454, N^1-(3-(2-(5-(5-((Ethylamino)methyl)pyridin-3-yl)-1H-pyrazolo[4,3-b]pyridin-3-yl)-1H-imidazo[4,5-c]pyridin-4-yl)-5-fluorophenyl)-N^2,N^2-dimethylethane-1,2-diamine], for which the EC50 in assay [1] was determined as 3680 nM. The Emax in assay [2] stood at 36%.

`CC(C)Nc1cncc(-c2ccc3[nH]nc(-c4nc5c(-c6cc(F)cc(NCCN(C)C)c6)nccc5[nH]4)c3n2)c1` [Compound 460, N^1-(3-Fluoro-5-(2-(5-(5-(isopropylamino)pyridin-3-yl)-1H-pyrazolo[4,3-b]pyridin-3-yl)-1H-imidazo[4,5-c]pyridin-4-yl)phenyl)-N^2,N^2-dimethylethane-1,2-diamine] displayed an EC50 in assay [1] of 732 nM. In addition, in assay [2], the Emax was 116% and the EC50 turned out to be 30 nM.

In the case of `CCCCC(=O)Nc1cncc(-c2ccc3[nH]nc(-c4nc5c(-c6cc(F)cc(NCCN(C)C)c6)nccc5[nH]4)c3n2)c1` [Compound 467, N-(5-(3-(4-(3-((2-(Dimethylamino)ethyl)amino)-5-fluorophenyl)-1H-imidazo[4,5-c]pyridin-2-yl)-1H-pyrazolo[4,3-b]pyridin-5-yl)pyridin-3-yl)pentanamide], in assay [1], the EC50 was found to be 1190 nM. In assay [2], the Emax stood at 52% and the EC50 was 100 nM.

The compound `Cc1ccncc1-c1ccc2[nH]nc(-c3nc4c(-c5cc(F)cc(CNS(C)(=O)=O)c5)nccc4[nH]3)c2n1` [Compound 481, N-(3-Fluoro-5-(2-(5-(4-methylpyridin-3-yl)-1H-pyrazolo[4,3-b]pyridin-3-yl)-1H-imidazo[4,5-c]pyridin-4-yl)benzyl)methanesulfonamide] registered an EC50 in assay [1] of 5000 nM. In addition, the Emax in assay [2] is 30%.

Consider `CCCC(=O)Nc1cncc(-c2ccc3[nH]nc(-c4nc5c(-c6cc(F)cc(CNS(C)(=O)=O)c6)nccc5[nH]4)c3n2)c1` [Compound 493, N-(5-(3-(4-(3-Fluoro-5-(methylsulfonamidomethyl)phenyl)-1H-imidazo[4,5-c]pyridin-2-yl)-1H-pyrazolo[4,3-b]pyridin-5-yl)pyridin-3-yl)butyramide], for which, in assay [1], the EC50 was greater than 10000 nM and the inhibition (commonly the percentage by which the read-out fell short of the control) at 10 µM was determined as 0%. Also, in assay [2], the Emax was determined as 46%.

In assay [1], `Fc1cccc(-c2nccc3[nH]c(-c4n[nH]c5ccc(C6CCNCC6)nc45)nc23)c1` [Compound 505, 3-(4-(3-Fluorophenyl)-1H-imidazo[4,5-c]pyridin-2-yl)-5-(piperidin-4-yl)-1H-pyrazolo[4,3-b]pyridine] came in with an EC50 of 3800 nM. Also, in assay [2], the Emax worked out at 46%.

In assay [1], `Fc1cccc(-c2nccc3[nH]c(-c4n[nH]c5ccc(C6=CCNCC6)nc45)nc23)c1` [Compound 506, 3-(4-(3-Fluorophenyl)-1H-imidazo[4,5-c]pyridin-2-yl)-5-(1,2,3,6-tetrahydropyridin-4-yl)-1H-pyrazolo[4,3-b]pyridine] registered an EC50 of 1170 nM. Besides, in assay [2], the Emax came out at 56% and the EC50 was 21 nM.

Consider `Fc1cccc(-c2nccc3[nH]c(-c4n[nH]c5ccc(-c6cn[nH]c6)nc45)nc23)c1` [Compound 507, 3-(4-(3-Fluorophenyl)-1H-imidazo[4,5-c]pyridin-2-yl)-5-(1H-pyrazol-4-yl)-1H-pyrazolo[4,3-b]pyridine], for which, in assay [1], the EC50 is greater than 10000 nM and the inhibition at 10 µM was 9.9%. Besides, in assay [2], the Emax amounted to 70% and the EC50 stood at 7 nM.

Regarding `Cn1cc(-c2ccc3[nH]nc(-c4nc5c(-c6cccc(F)c6)nccc5[nH]4)c3n2)cn1` [Compound 508, 3-(4-(3-Fluorophenyl)-1H-imidazo[4,5-c]pyridin-2-yl)-5-(1-methyl-1H-pyrazol-4-yl)-1H-pyrazolo[4,3-b]pyridine], in assay [1], the EC50 was determined as 106 nM. Further, the Emax in assay [2] was found to be 43%.

Take `NC1CN(c2cncc(-c3ccc4[nH]nc(-c5nc6c(-c7cccc(F)c7)nccc6[nH]5)c4n3)n2)C1` [Compound 510, 1-(6-(3-(4-(3-Fluorophenyl)-1H-imidazo[4,5-c]pyridin-2-yl)-1H-pyrazolo [4,3-b]pyridin-5-yl)pyrazin-2-yl)azetidin-3-amine]: in assay [1], the EC50 was greater than 10000 nM and the inhibition at 10 µM was 10.3%. The Emax in assay [2] was determined as 36%.

As to `CN(C)CCOc1cncc(-c2ccc3[nH]nc(-c4nc5c(-c6cccc(F)c6)nccc5[nH]4)c3n2)c1` [Compound 515, 2-((5-(3-(4-(3-Fluorophenyl)-1H-imidazo[4,5-c]pyridin-2-yl)-1H-pyrazolo [4,3-b]pyridin-5-yl)pyridin-3-yl)oxy)-N,N-dimethylethan-1-amine], the EC50 in assay [1] was found to be 865 nM. For the same compound, in assay [2], the Emax came out at 59% and the EC50 was 2 nM.

In the case of `COc1cncc(-c2ccc3[nH]nc(-c4nc5c(-c6cccc(F)c6)nccc5[nH]4)c3n2)c1` [Compound 516, 3-(4-(3-Fluorophenyl)-1H-imidazo[4,5-c]pyridin-2-yl)-5-(5-methoxypyridin-3-yl)-1H-pyrazolo[4,3-b]pyridine], the figures for the EC50 in assay [1] and in assay [2] were 93 nM and 21 nM, respectively. In addition, in assay [2], the Emax worked out at 60%.

Compound `Oc1cncc(-c2ccc3[nH]nc(-c4nc5c(-c6cccc(F)c6)nccc5[nH]4)c3n2)c1` [Compound 517, 5-(3-(4-(3-Fluorophenyl)-1H-imidazo[4,5-c]pyridin-2-yl)-1H-pyrazolo[4,3-b]pyridin-5-yl)pyridin-3-ol] had an EC50 in assay [1] of 1560 nM. In addition, in assay [2], the Emax came to 57% and the EC50 turned out to be 7 nM.

With `Fc1cccc(-c2nccc3[nH]c(-c4n[nH]c5ccc(-c6cnccn6)nc45)nc23)c1` [Compound 520, 3-(4-(3-Fluorophenyl)-1H-imidazo[4,5-c]pyridin-2-yl)-5-(pyrazin-2-yl)-1H-pyrazolo[4,3-b]pyridine], in assay [1], the EC50 was greater than 10000 nM and the inhibition at 10 µM was 2.4%. For the same compound, in assay [2], the Emax worked out at 55% and the EC50 was found to be 21 nM.
